One test deals with T1, PDE4B (Homo sapiens, UniProt Q07343).
T1 construct: endogenous in cells; host or cells: A549
Briefly: Protein degradation assay, western blot, PDE4B in A549 cells. To be noted: 24 h treatment, 'as high as about' = upper value for the group, read-out: PDE4B degradation relative to DMSO. The class given is cell-based. How it is done:
(§1) Example B2. Protein Degradation Assay
(§2) A549 cells were grown in RPMI 1640 media supplemented with 10% fetal bovine serum, streptomycin, and penicillin. The cells were plated in 6-well plates at 300,000 cells/well in the growth media. After overnight incubation, the cells were treated with DMSO (control) or a compound at predetermined concentrations (e.g., 10 nM, 100 nM, 1 μM, 3 μM, or 10 μM) for 24 h at 37° C. under 5% CO2. Whole cell extracts were prepared using an immunoprecipitation (IP) lysis buffer. The cells were washed once in PBS, and the cell pellets were resuspended in the IP lysis buffer and incubated for 15 min on ice. Cells debris was removed by centrifugation and the cleared whole cell lysates were transferred to new tubes for further analysis.
(§3) For a western blot analysis, the whole cell protein extracts were separated on 4-12% SDS-polyacrylamide gels, transferred to nitrocellulose, and probed with primary antibodies. Membranes were subsequently washed and probed with IRDYE® secondary antibodies. The signals were detected using an ODYSSEY® Imaging System. The antibodies used in the assay included anti-PDE4B antibody; anti-PDE4D antibodies (top, bottom, and short isoform); β-actin mouse monoclonal antibody; IRDYE® 680RD goat anti-rabbit antibody; and IRDYE® 800CW goat anti-mouse antibody. The compounds provided herein are PDE4 protein degraders.
On the technique in general: In western blotting, separated proteins are transferred to a membrane and probed.

The test system of the next test is TNF-α. Briefly: Cell-based TNF-α inhibition assay (LPS-induced PBMCs, Meso Scale). The conditions noted are these: PBMC, PBMCs pretreated 1 h, LPS 100 ng/mL 18-24 h, percentage of stimulated DMSO control; for inhibition at 0.1 µM: compound concentration 0.1 μM; for inhibition at 1 µM: compound concentration 1 μM. The gist of the method:
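Thawed primary PBMCs (200,000 cells/well, RPMI 1640 with 10% FBS) were pretreated with compound for 1 h, then stimulated with 100 ng/mL LPS for 18–24 h. Supernatant TNF-α was measured by Meso Scale, and activity was expressed as percent inhibition relative to the stimulated DMSO control.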

Test [1] relates to PDE4D, in particular, PDE4D short isoform. Description: Protein degradation assay, western blot, PDE4D in A549 cells. The class given is cell-based. The conditions noted are these: 24 h treatment, same conditions. How it is done:
as §1, §2, §3

T1 sequence (Q07343 whole entry): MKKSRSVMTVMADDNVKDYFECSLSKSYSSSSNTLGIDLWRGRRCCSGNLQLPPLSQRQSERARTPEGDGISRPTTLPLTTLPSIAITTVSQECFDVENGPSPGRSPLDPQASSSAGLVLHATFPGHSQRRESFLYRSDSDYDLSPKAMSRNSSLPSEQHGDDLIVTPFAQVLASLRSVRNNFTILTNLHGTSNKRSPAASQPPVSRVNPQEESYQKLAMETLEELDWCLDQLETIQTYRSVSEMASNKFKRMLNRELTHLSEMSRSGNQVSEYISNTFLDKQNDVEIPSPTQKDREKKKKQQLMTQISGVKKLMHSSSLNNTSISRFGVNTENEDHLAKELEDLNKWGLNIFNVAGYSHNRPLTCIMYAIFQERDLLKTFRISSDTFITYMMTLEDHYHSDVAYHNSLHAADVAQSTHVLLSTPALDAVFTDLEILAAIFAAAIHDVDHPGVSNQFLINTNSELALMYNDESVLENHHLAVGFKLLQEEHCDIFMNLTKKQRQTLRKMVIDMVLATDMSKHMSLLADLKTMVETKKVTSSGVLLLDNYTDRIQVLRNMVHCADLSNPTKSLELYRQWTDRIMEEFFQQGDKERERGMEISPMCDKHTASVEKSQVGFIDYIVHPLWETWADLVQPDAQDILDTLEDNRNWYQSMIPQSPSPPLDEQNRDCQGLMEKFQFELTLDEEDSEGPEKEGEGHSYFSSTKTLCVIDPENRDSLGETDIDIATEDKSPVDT

`O=C1CCC(Nc2cccc(NC(=O)CN3CCN(CCOc4cc(C(=O)Nc5c(Cl)cncc5Cl)ccc4OC(F)F)CC3)c2)C(=O)N1` (stereo not shown) [Compound B24, N-(3,5-Dichloropyridin-4-yl)-4-(difluoromethoxy)-3-(2-(4-(2-((3-((2,6-dioxopiperidin-3-yl)amino)phenyl)amino)-2-oxoethyl)piperazin-1-yl)ethoxy)benzamide]: the Dmax at PDE4B was no more than 70%. In the test on TNF-α, the inhibition (usually the change of the read-out against control, counted positive when it falls) at 0.1 µM is no less than 60% and the inhibition at 1 µM is no less than 60%.

For `O=C1CCC(Nc2cccc(NC(=O)CN3CCN(CCCCOc4cc(C(=O)Nc5c(Cl)cncc5Cl)ccc4OC(F)F)CC3)c2)C(=O)N1` (stereo not shown) [Compound B25, N-(3,5-Dichloropyridin-4-yl)-4-(difluoromethoxy)-3-(4-(4-(2-((3-((2,6-dioxopiperidin-3-yl)amino)phenyl)amino)-2-oxoethyl)piperazin-1-yl)butoxy)benzamide], the Dmax at PDE4B is no more than 70%. Moreover, in the test on TNF-α, the inhibition at 0.1 µM is no less than 60% and the inhibition at 1 µM was no less than 60%.

Regarding `CCOc1cc([C@@H](CS(C)(=O)=O)N2C(=O)c3cccc(NC(C)=O)c3C2=O)ccc1OC` [apremilast], the “PDE4D degradation (in words)” value in test [1] is recorded as “did not degradate the PDE4D”.

The values are drawn from US20240124418A1 (BioTheryX, Inc., priority 2020, published 2024).
